We go through one compound from US20050049240A1, “Tetrahydroisochinolines, their production and the use thereof as analgesics” (Bayer HealthCare AG, priority 2001, published 2005).

The target in the experiment is T1, human neurotensin-2 (NT-2) receptor (Homo sapiens, UniProt O95665).
T1 construct: expressed in transfected cells
Briefly: NT2 antagonism assay (intracellular calcium release in CHO or HEK 293 cells recombinantly expressing the receptor). The format is cell-based. The settings on record: functional in vitro assay; block of agonist (e.g. SR48692)-dependent intracellular calcium release; recombinant human NT-2 receptor. The text has this:
The activation of the human neurotensin-2 (NT-2) receptor by an agonist, for example SR48692, 2-{[1-(7-chloroquinolin-4-yl)-5-(2,6-dimethoxyphenyl)pyrazol-3-yl]carbonylamino}tricyclo[3.3.3.1 ^3,7]decane-2-carboxylic acid, leads, via stimulation of phospholipase C, to the release of calcium ions from intracellular stores. Antagonists block the activation of the receptor by the agonist and therefore also the agonist-dependent stimulation of phospholipase C and the intracellular calcium release initiated thereby.
A functional in vitro assay may be carried out with stable cell lines, for example CHO or HEK 293, which express the human NT-2 receptor recombinantly. The activity of the receptor is determined via measurement of the intracellular calcium release coupled thereto (in microtiter plates having 96, 384 and 1536 wells/plate). The concentration-dependent action of the NT-2 ligands tested on the receptor activity may be reported as IC50.

T1 sequence (O95665 whole entry): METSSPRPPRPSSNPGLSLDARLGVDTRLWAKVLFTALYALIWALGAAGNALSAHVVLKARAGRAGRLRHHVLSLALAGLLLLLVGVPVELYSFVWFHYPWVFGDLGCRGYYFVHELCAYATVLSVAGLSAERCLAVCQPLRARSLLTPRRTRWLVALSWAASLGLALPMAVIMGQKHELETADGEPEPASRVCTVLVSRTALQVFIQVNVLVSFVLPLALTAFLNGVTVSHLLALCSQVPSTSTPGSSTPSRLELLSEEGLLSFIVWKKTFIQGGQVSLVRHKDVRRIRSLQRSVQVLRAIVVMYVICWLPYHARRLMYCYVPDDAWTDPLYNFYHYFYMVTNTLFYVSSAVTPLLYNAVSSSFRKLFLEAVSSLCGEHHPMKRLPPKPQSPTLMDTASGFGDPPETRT

One may read the IC50 as the midpoint of a concentration-inhibition curve. Regarding `NC(=O)COc1ccccc1C1C(C(=O)NCc2cccnc2)c2ccccc2C(=O)N1CCC1=CCCCC1` (single isomer, unassigned) [enantiomer B of example 1, 3,4-trans-3-[2-(2-Carbamoylmethoxy)phenyl]-2-[2-(1-cyclohexen-1-yl)ethyl]-1-oxo-N-(3-pyridinylmethyl)-1,2,3,4-tetrahydro-4-isoquinolinecarboxamide], the IC50 is less than 200 nM.
